Earlier results, collected in PMC8433641, “A Stability-Indicating Ultra Performance Liquid Chromato-Graphic (UPLC) Method for the Determination of a Mycophenolic Acid-Curcumin Conjugate and Its Applications to Chemical Kinetic Studies” (Molecules, 2021).

Parameters: method as in PMID 29678124
Details: pH 7.4

Substance: curcumin
- t1/2: 33.6 min
